One data set addresses T1, Y2 receptor (Homo sapiens, UniProt P49146).
T1 sequence (P49146 1-381): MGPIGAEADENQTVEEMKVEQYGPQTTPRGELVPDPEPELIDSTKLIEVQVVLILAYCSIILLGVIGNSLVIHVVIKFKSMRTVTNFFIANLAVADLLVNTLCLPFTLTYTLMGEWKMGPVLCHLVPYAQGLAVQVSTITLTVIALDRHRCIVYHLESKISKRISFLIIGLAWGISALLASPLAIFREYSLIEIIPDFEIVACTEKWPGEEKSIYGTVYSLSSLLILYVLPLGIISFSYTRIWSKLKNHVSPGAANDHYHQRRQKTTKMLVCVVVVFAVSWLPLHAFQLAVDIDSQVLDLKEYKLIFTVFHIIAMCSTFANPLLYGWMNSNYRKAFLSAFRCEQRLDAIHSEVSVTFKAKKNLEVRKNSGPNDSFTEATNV
The data set can be described thus: Y2 receptor binding assay ([125I]PYY, membrane protein). As to conditions: [125I]PYY, membrane protein; read-out: hNPY2 IC50. An outline of the steps: (§1)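 Filtration binding with membrane protein and drug dilution, 2 h at room temperature with mixing, radioactivity counted by gamma or scintillation. Y2: 25 pM [125I]PYY in Krebs-Ringer bicarbonate pH 7.4 with 0.01% BSA, nonspecific by 1 μM NPY. Y4/PP1: 50 pM [125I]hPP in HEPES-buffered saline pH 7.4 with protease inhibitors and 0.3% BSA, nonspecific by 1 μM hPP.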

The target of a further data set is human Y4/PP1 receptor (Homo sapiens, UniProt P50391). As to the kind of experiment: Human Y4/PP1 receptor binding assay ([125I]human PP, membrane protein). As to conditions: [125I]human PP, membrane protein; read-out: hNPY4 IC50. In short, it runs like this: as §1
Sequence of human Y4/PP1 receptor (P50391 whole entry): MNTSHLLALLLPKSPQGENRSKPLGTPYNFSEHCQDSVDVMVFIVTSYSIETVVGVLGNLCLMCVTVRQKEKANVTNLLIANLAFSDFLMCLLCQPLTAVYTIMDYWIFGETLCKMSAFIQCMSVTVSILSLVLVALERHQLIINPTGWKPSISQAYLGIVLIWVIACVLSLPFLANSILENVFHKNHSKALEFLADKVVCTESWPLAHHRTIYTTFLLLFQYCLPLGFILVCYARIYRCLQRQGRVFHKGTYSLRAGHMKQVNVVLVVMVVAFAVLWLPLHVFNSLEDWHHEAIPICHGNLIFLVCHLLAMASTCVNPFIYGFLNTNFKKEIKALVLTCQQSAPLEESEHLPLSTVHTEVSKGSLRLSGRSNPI

For `O.O=C(CN1CCC(n2c(=O)[nH]c3ccccc32)CC1)Nc1ccc(-c2cnco2)cc1` (hydrate or solvate) [Compound 267, N-(4-Oxazol-5-yl-phenyl)-2-[4-(2-oxo-2,3-dihydro-benzoimidazol-1-yl)-piperidin-1-yl]-acetamide; hydrate], the melting point – broadly, the temperature of the solid-liquid transition – was in the range of 177 to 178 °C.

In the case of `O=C(CN1CCC(n2c(=O)[nH]c3ccccc32)CC1)NCC1CCCO1` (centres unmarked) [Compound 285, 2-[4-(2-Oxo-2,3-dihydro-benzoimidazol-1-yl)-piperidin-1-yl]-N-(tetrahydro-furan-2-ylmethyl)-acetamide], the melting point fell in the range of 179 to 180 °C. On Y2 receptor, the IC50 (as a rule, the point on the concentration scale where inhibition reaches its midpoint) is more than 5 µM. Also, the 50% inhibitory concentration (IC50) on human Y4/PP1 receptor was more than 5 µM.

The compound `O=C(CN1CCC(n2c(=O)[nH]c3ccccc32)CC1)NC1CCCC1.O=C(O)C(=O)O` [Compound 288, N-Cyclopentyl-2-[4-(2-oxo-2,3-dihydro-benzoimidazol-1-yl)-piperidin-1-yl]-acetamide; compound with oxalic acid] gave a melting point of 217 to 218 °C. For the same compound, at Y2 receptor, the IC50 is more than 5 µM. Also, at human Y4/PP1 receptor, the IC50 is more than 5 µM.

In turn, `CC(C)OCCCNC(=O)CN1CCC(n2c(=O)[nH]c3ccccc32)CC1` [Compound 289, N-(3-Isopropoxy-propyl)-2-[4-(2-oxo-2,3-dihydro-benzoimidazol-1-yl)-piperidin-1-yl]-acetamide] registered a melting point of 67 to 68 °C.

In turn, `Cl.O=C(CN1CCC(n2c(=O)[nH]c3ccccc32)CC1)N1CCCCCCC1` [Compound 305, 1-[1-(2-Azocan-1-yl-2-oxo-ethyl)-piperidin-4-yl]-1,3-dihydro-benzoimidazol-2-one; hydrochloride] displayed a melting point of 158 °C. Besides, the half-maximal inhibitory concentration (IC50) on Y2 receptor is more than 5 µM. On human Y4/PP1 receptor, the IC50 is more than 5 µM.

Turning to `Cl.O=C(CN1CCC(n2c(=O)[nH]c3ccccc32)CC1)Nc1cccc2c1C(=O)c1ccccc1-2` [Compound 307, 2-[4-(2-Oxo-2,3-dihydro-benzoimidazol-1-yl)-piperidin-1-yl]-N-(9-oxo-9H-fluoren-1-yl)-acetamide; hydrochloride], the melting point is 204 °C. Also, the IC50 on Y2 receptor is more than 5 µM. The IC50 on human Y4/PP1 receptor is more than 5 µM.

In turn, `O=C(CN1CCC(n2c(=O)[nH]c3ccccc32)CC1)N1CCCCCC1` [Compound 309, 1-[1-(2-Azepan-1-yl-2-oxo-ethyl)-piperidin-4-yl]-1,3-dihydro-benzoimidazol-2-one] showed a melting point of 166 °C. In addition, on Y2 receptor, the IC50 is more than 5 µM. Moreover, the IC50 on human Y4/PP1 receptor is more than 5 µM.

Source of the values: patent publication US6410792B1, “Amide derivatives and methods for using the same as selective neuropeptide Y receptor antagonists” (Bayer Corporation, priority 1997, dated 2002).
